Tests used:
[1] = Superoxide production, methylglyoxal with N-α-acetyl-lysine, WST-1 assay
Description: The superoxide radical scavenging activity of the compounds was evaluated using the WST-1 method described in Ukeda et al., Anal. Sci. 18:1151-1154, 2002. Briefly, methylglyoxal, was incubated with or without N-α-acetyl-lysine in 0.05 M chelex-treated sodium phosphate buffer, pH 7.4, in the presence of various concentrations of the inhibitor compounds. The production of superoxide was monitored spectrophotometrically at 438 nm, and compared with superoxide dismutase and Tiron, two known superoxide radical scavengers.

[2] = test system: diabetic and hyperlipidemic rats; settings: diabetic and hyperlipidemic rats (Degenhardt et al.; Alderson et al.); cited from earlier work
[3] = Inhibition of copper-catalyzed oxidation of ascorbic acid (Cu2+ chelating activity); settings: 500 nmol/L CuCl2, 500 μmol/L ascorbic acid, phosphate buffer pH 7.4, 60 minutes; read-out: IC50, concentration that inhibited the rate of AA oxidation by 50%
Description: In vitro measurement of the kinetics of inhibition of copper-catalyzed oxidation of ascorbic acid was performed according to the methods of Price et al., J. Biol. Chem. 276:48967-48972, 2001. Briefly, CuCl2 and various concentrations of inhibitor compounds were pre-incubated in chelex-treated 20 mmol/L phosphate buffer, pH 7.4, for 5 minutes. Ascorbic acid then was added (50 μL of 10 mmol/L in water) to initiate the reaction (1 mL total reaction volume). The final concentrations of CuCl2 and ascorbic acid in the reaction were 500 nmol/L and 500 μmol/L, respectively. Aliquots (135 μL) were removed at 0 and 60 minutes and transferred to autoinjector vials containing 15 μL of 10 mmol/l DTPA. Samples were analyzed by reversed phase HPLC on an XTerra™ RP18 column (250 mm×4.6 mm, 5 μm) with an XTerra™ RP18 5 μm guard column using a Waters® 2690 Separator Module equipped with auto-injector and Millenium® 32 software. Solvents and gradient were all used as described in Dillon et al., Life Sci. 72:1583-1594, 2003. The absorbance of ascorbic acid was measured at 244 nm and the peak area was obtained to estimate the percent of ascorbic acid remaining versus time. For each inhibitor compound, the concentration that inhibited the rate of AA oxidation by 50% (IC50), was calculated with respect to the control using Prism™ software.

[4] = test system: rats with diabetic nephropathy; settings: rats with diabetic nephropathy (Forbes et al.); cited from earlier work
Human LDL [5] = experiment: Cu++-mediated LDL oxidation, TBARS (Example 16); settings: 250 μM compound, followed for 5 hours; control lag phase about 2 hours
Description: Human LDL was isolated from plasma of healthy donors by single vertical spin centrifugation (see Chung et al., Methods Enzymol. 128:181-209, 1986) and used within 24-48 hours of preparation. LDL (50 μg/mL) was incubated at 37° C. in 50 mM chelex-treated phosphate buffer, pH 7.4, alone or in the presence of 5 μM CuCl2 or 5 μM CuCl2 plus various concentrations of the LR compounds. After 5 hours of incubation, aliquots from each reaction mixture were removed for measurement of thiobarbituric acid-reacting substances (TBARS) as described in Satoh, Clin. Chim. Acta 90:37-43, 1978. Briefly, 250 μL of 20% trichloroacetic acid was added to 500 μL of sample aliquot, followed by 750 μL of 1% […]. The samples then were vortexed and incubated in a boiling water bath for 10 minutes. Upon cooling, the samples were centrifuged for 5 minutes at 5000 rpm. Absorbance of the supernatant was taken at 532 nm, and expressed as MDA equivalents using 1,1,3,3-tetramethoxypropane as standards. For fatty acid oxidation studies, linoleic acid (5#mM) was incubated alone or in the presence of 1 mM LR compound in […] phosphate buffer, pH 7.4, for 7 days at 37° C. Aliquots from each reaction mixture were withdrawn periodically for measurement of TBARS as described above.
Results are shown in FIG. 23A, where values are provided as means±SD of two independent experiments (n=4 for each treatment). In separate experiments, the time course for the oxidative modification fo LDL by Cu^++ in the presence of 250 μM compound was followed for 5 hours and aliquots for each time interval were assayed for TBARS. Values in FIG. 23B are means±SD of two independent experiments (n=4 per treatment).

Human LDL [6] = experiment: Cu++-mediated oxidation of LDL, TBARS (Example 9); settings: 5 μM CuCl2, 10-250 μM compound, 5 hours, 37° C.
Description: The ability of the LR compounds to inhibit lipid peroxidation was tested using Cu^++-mediated lipid oxidation, a common in vitro model for studies on lipoxidative modifications of proteins. The effects of the LR compounds on lipid peroxidation were studied using Cu^++-mediated oxidation of LDL. Human LDL (50 μg of protein/mL) was incubated at 37° C. in chelex-treated PBS buffer alone or in the presence of 5 μM CuCl2 or 5 μM CuCl2 plus various concentrations of the inhibitor compounds (10-250 μM). After 5 hours of incubation, the amount of thiobarbituric acid reactive substances (expressed as malondialdehyde (MDA) equivalents) generated in the reaction mixture was calculated according to methods described by Dillon et al., Life Sci. #72:1583-1594, 2003. Briefly, aliquots from each sample were precipitated with 20% trichloroacetic acid, centrifuged and an equal volume of 1% thiobarbituric acid was added to the supernatant. The samples then were heated to 95° C. for 10 minutes, and upon cooling, the absorbance was read at 532 nm. Hydrolyzed tetraethoxypropane was used as a standard for the MDA equivalent calculation.

Question: For `N=C(N)NN` [AG, aminoguanidine, reference compound], which “effect on superoxide production” value [1] is on record?
Answer: Its value is “little or no effect”.

Question: And the lipid-lowering effects [2]?
Answer: The lipid-lowering effects was “lipid-lowering effects”.

Question: What about the IC50 [3] of the same compound?
Answer: The IC50 was 2750 µM.

Question: What about the “increase in CML-AGE and nitrotyrosine staining” value [4] of the same compound?
Answer: Its value is “attenuated”.

Question: Which “time course of Cu++-mediated oxidation of LDL” value (Human LDL [5]) does the source give for `Cc1ncc(CO)c(CN)c1O` [PM, pyridoxamine, reference compound] here?
Answer: The value was “no effect”.

Question: What about the lipid-lowering effects [2] of the same compound?
Answer: The lipid-lowering effects was “lipid-lowering effects”.

Question: What about the “inhibition of Cu++-mediated LDL oxidation (lipid peroxidation)” value (Human LDL [6]) of the same compound?
Answer: Its value is “no effect”.

Question: What about the “inhibition of Cu++-mediated LDL oxidation (lipid peroxidation)” value (Human LDL [6]; listed as pyridoxamine) of the same compound?
Answer: The value was “minimal effects”.

Question: With `CCOC(=O)[C@H](CCc1ccccc1)N[C@@H](C)C(=O)N1[C@H](C(=O)O)C[C@@H]2CCC[C@@H]21` [ramipril] as the compound, how does the “increase in CML-AGE and nitrotyrosine staining” value [4] read?
Answer: The value was “attenuated”.

Reference: patent US7652037B2, “Methods of lowering lipid levels in a mammal” (City Of Hope, priority 2003, dated 2010)
